Experimental data published in ChEMBL document CHEMBL1140024 (Bioorg Med Chem Lett, 2007).

Assays:
Assay type in all cases: functional; call rule not given here
[1] = molecular target: T1, Peroxisome proliferator-activated receptor alpha (Homo sapiens, UniProt Q07869); assay: Agonist activity at human recombinant PPARalpha by GAL4 transactivation assay
T1 sequence (Q07869 whole entry): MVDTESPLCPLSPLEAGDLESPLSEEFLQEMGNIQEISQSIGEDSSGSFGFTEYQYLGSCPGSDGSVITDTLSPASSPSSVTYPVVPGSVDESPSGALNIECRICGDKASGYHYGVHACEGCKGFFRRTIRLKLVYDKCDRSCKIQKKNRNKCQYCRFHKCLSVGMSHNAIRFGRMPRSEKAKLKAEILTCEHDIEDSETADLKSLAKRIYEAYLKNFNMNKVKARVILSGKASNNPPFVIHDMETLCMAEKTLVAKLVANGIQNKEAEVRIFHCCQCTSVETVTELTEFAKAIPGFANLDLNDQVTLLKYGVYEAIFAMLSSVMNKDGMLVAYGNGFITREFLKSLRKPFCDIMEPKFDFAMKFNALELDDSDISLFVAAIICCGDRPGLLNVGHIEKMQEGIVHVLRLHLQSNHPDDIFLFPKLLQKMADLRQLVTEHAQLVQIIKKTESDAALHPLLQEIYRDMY

[2] = molecular target: T2, Peroxisome proliferator-activated receptor gamma (Homo sapiens, UniProt P37231); assay: Agonist activity at human recombinant PPARgamma by GAL4 transactivation assay
T2 sequence (P37231 whole entry): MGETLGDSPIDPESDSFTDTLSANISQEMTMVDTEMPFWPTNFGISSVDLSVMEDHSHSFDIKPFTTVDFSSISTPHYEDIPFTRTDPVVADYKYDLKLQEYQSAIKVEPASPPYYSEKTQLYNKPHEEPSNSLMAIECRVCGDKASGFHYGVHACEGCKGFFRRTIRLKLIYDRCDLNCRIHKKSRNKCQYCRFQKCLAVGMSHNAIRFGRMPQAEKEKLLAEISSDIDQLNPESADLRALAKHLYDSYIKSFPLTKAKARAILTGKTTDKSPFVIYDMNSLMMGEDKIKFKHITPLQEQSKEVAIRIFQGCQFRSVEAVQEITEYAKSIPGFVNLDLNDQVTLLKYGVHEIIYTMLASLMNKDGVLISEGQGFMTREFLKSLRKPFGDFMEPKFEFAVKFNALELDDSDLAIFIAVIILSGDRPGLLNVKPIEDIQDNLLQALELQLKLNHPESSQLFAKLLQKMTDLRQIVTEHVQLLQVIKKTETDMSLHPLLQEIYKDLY

[3] = molecular target: T3, Peroxisome proliferator-activated receptor delta (Homo sapiens, UniProt Q03181); assay: Agonist activity at human recombinant PPARdelta by GAL4 transactivation assay
T3 sequence (Q03181 whole entry): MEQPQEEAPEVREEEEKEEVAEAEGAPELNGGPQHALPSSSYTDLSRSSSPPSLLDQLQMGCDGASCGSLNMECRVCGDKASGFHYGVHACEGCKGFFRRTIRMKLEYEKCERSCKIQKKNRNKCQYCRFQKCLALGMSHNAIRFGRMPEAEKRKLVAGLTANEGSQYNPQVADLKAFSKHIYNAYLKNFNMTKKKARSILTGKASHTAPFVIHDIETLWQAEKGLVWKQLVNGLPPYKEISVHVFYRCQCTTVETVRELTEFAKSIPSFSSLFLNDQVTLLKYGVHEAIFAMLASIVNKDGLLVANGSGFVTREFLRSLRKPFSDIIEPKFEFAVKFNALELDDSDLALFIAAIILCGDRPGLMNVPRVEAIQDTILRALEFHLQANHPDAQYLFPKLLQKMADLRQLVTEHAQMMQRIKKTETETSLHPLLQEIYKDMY

[4] = tested on: Rattus norvegicus; assay: Decrease in triglyceride level in Sprague-Dawley rat at 1 mg/kg after 7 days; design: scale not given: the % may be the effect or the level left
[5] = tested on: Rattus norvegicus; assay: Increase in liver weight in Sprague-Dawley rat at 1 mg/kg after 7 days
[6] = tested on: Mus musculus; assay: Increase in plasma HDL-C in human apoA1 transgenic mouse at 3 mg/kg after 14 days
[7] = tested on: Mus musculus; assay: Increase in plasma HDL-C in human apoA1 transgenic mouse at 300 mg/kg after 14 days
[8] = tested on: Mus musculus; assay: Increase in plasma HDL-C in human apoA1 transgenic mouse at 1 mg/kg after 14 days

Row | Structure (SMILES) | EC50 ([1]; read-out: EC50) [nM] | EC50 ([2]; read-out: EC50) [nM] | EC50 ([3]; read-out: EC50) [nM] | other results
1 | CCC(Oc1cccc(CN(CCCOc2ccccc2)c2nc3cc(C(F)(F)F)ccc3o2)c1)C(=O)O (centres undefined) | 23 | 400 | 160 | –
2 | CCC(Oc1cccc(CN(CCCOc2ccccc2)c2nc3cc(C)ccc3o2)c1)C(=O)O (centres undefined) | 100 | > 10000 | 5000 | –
3 | CCC(Oc1cccc(CN(CCCOc2ccccc2)c2nc3cc(O)ccc3o2)c1)C(=O)O (centres undefined) | 180 | > 10000 | 140 | –
4 | CCC(Oc1cccc(CN(CCCOc2ccc(F)cc2)c2nc3ccccc3o2)c1)C(=O)O (centres undefined) | 8 | > 10000 | – | –
5 | CCC(Oc1cccc(CN(CCCOc2ccc(OC)cc2)c2nc3ccccc3o2)c1)C(=O)O (centres undefined) | – | > 10000 | – | –
6 | CCC(Oc1cccc(CN(CCCOc2cccc([N+](=O)[O-])c2)c2nc3ccccc3o2)c1)C(=O)O (centres undefined) | 24 | > 10000 | 1400 | –
7 | CCC(Oc1cccc(CN(CCCOc2ccc(C)cc2)c2nc3ccccc3o2)c1)C(=O)O (centres undefined) | – | 210 | 120 | –
8 | CCC(Oc1cccc(CN(CCCOc2ccc(C)c(C)c2)c2nc3ccccc3o2)c1)C(=O)O (centres undefined) | 1 | 750 | 830 | –
9 | CCC(Oc1cccc(CN(CCCOc2ccc(F)cc2F)c2nc3ccccc3o2)c1)C(=O)O (centres undefined) | 11 | 2100 | 6500 | –
10 | CCC(Oc1cccc(CN(CCCOc2ccc(O)cc2)c2nc3ccccc3o2)c1)C(=O)O (centres undefined) | 260 | 1400 | 3 | –
11 | CC[C@@H](Oc1cccc(CN(CCCOc2ccc(F)cc2)c2nc3ccccc3o2)c1)C(=O)O | – | – | – | Activity [4]: -46%; Activity [5]: 20%; Activity [6]: 147%
12 | CC[C@H](Oc1cccc(CN(CCCOc2ccc(F)cc2)c2nc3ccccc3o2)c1)C(=O)O | 20 | 1190 | 1570 | –
13 | CC(C)(Oc1ccccc1CN(CCOc1ccccc1)c1nc2ccccc2o1)C(=O)O | – | – | – | EC50 [1]: Not Active; EC50 [2]: Not Active; EC50 [3]: Not Active
14 | CC(C)(Oc1ccc(CN(CCOc2ccccc2)c2nc3ccccc3o2)cc1)C(=O)O | – | – | – | EC50 [1]: Not Active; EC50 [2]: Not Active; EC50 [3]: Not Active
15 | CC(C)(Oc1cccc(CN(CCOc2ccccc2)c2nc3ccccc3o2)c1)C(=O)O | 630 | 2100 | – | –
16 | CC[C@H](Oc1cccc(CN(CCCOc2ccc(OC)cc2)c2nc3ccccc3o2)c1)C(=O)O | – | 1310 | 1800 | –

Row | Structure (SMILES) | EC50 ([1]; read-out: EC50) [nM] | EC50 ([2]; read-out: EC50) [nM] | EC50 ([3]; read-out: EC50) [nM] | other results
17 | CC(C)(Oc1cccc(CN(CCCOc2ccccc2)c2nc3ccccc3o2)c1)C(=O)O | 190 | 5000 | 1400 | –
18 | CC(Oc1cccc(CN(CCCOc2ccccc2)c2nc3ccccc3o2)c1)C(=O)O (centres undefined) | – | – | 2700 | –
19 | CCC(Oc1cccc(CN(CCCOc2ccccc2)c2nc3ccccc3o2)c1)C(=O)O (centres undefined) | 9 | > 10000 | – | –
20 | CC(Oc1cccc(CCN(CCCOc2ccccc2)c2nc3ccccc3o2)c1)C(=O)O (centres undefined) | 10 | 1800 | 2300 | –
21 | CCC(Oc1cccc(CN(CCCOc2ccccc2)c2nc3ccc(F)cc3o2)c1)C(=O)O (centres undefined) | 5 | 1100 | 1900 | –
22 | CCC(Oc1cccc(CN(CCCOc2ccc(F)c(F)c2)c2nc3ccccc3o2)c1)C(=O)O (centres undefined) | 2 | 1800 | 1300 | –
23 | CC[C@@H](Oc1cccc(CN(CCCOc2ccccc2)c2nc3ccccc3o2)c1)C(=O)O | – | – | – | Activity [4]: -51%; Activity [5]: 19%; Activity [6]: 201%
24 | CCC(Oc1cccc(CN(CCCOc2ccccc2)c2nc3c(O)cccc3o2)c1)C(=O)O (centres undefined) | 160 | 2000 | 1900 | –
25 | CCC(Oc1cccc(CN(CCCOc2ccc(S(=O)(=O)OC)cc2)c2nc3ccccc3o2)c1)C(=O)O (centres undefined) | 120 | > 10000 | – | –
26 | CC[C@H](Oc1cccc(CN(CCCOc2ccccc2)c2nc3ccccc3o2)c1)C(=O)O | 130 | 870 | 1660 | –
27 | CC(C)(Oc1cccc(CCCN(CCOc2ccccc2)c2nc3ccccc3o2)c1)C(=O)O | – | 100 | 800 | –
28 | CCC(Oc1cccc(CN(CCCOc2ccccc2)c2nc3cccc(F)c3o2)c1)C(=O)O (centres undefined) | 2 | 530 | 8000 | –
29 | CCC(Oc1cccc(CN(CCCOc2ccc(C)cc2C)c2nc3ccccc3o2)c1)C(=O)O (centres undefined) | 1 | 130 | 110 | –
30 | CCC(Oc1cccc(CN(CCCOc2ccc3c(c2)OCO3)c2nc3ccccc3o2)c1)C(=O)O (centres undefined) | 7 | 1800 | 1700 | –
31 | CC(C)OC(=O)C(C)(C)Oc1ccc(C(=O)c2ccc(Cl)cc2)cc1 [FENOFIBRATE] | – | – | – | Activity [7]: 145%
32 | CC[C@@H](Oc1cccc(CN(CCCOc2ccc(OC)cc2)c2nc3ccccc3o2)c1)C(=O)O [PEMAFIBRATE] | – | – | 1580 | Activity [4]: -49%; Activity [5]: 25%; Activity [8]: 194%
